This note sets out measurements from patent US20250346576A1, “KCNT1 INHIBITORS COMPRISING A PYRAZOLE CORE AND METHODS OF USE” (PRAXIS PRECISION MEDICINES, INC., priority 2022, published 2025).

The nature of series [1]: Kinetic solubility assay (shake flask, HPLC-UV). It counts as physicochemical. The following applies: aqueous buffer, kinetic from dmso stock, 50 mM pH 7.4 phosphate buffer, room temperature. As for the experimental part: Kinetic Solubility Assay: The Kinetic solubility assay employed the shake flask method followed by HPLC-UV analysis. The following step-wise procedure is used: • 1) Weigh and dissolve the samples in 100% DMSO as the stock solution of 10 mM. About 10 μL (compound/Media) of stock solution is needed in this assay. • 2) Add the test compounds and controls (10 mM in DMSO, 10 μL/vial) into the 50 mM pH 7.4 phosphate buffer (490 μL/well) placed in a Mini-Uniprep filter. • 3) Vortex the samples of kinetic solubility for 2 minutes. • 4) Incubate and shake the solubility solutions on an orbital shaker with 800 rpm at room temperature for 24 hours. • 5) Centrifuge at 4000 rpm, 20° C. for 10 minutes. • 6) Transfer 400 μL (with or without dilution) of each solubility supernatant into 96-deep well for analysis after the samples will be directly filtered by the syringeless filter device. • 7) Determine the test compound concentration of the filtrate using HPLC-UV. • 8) Inject at least 5 UV standard solutions into HPLC from low to high concentration subsequently and then test the Kinetic solubility supernatant in duplicate. • 9) Use the QC samples to monitor Kinetic solubility determination process.

Series [2] in a line: Liver microsome metabolic stability assay (NADPH). The series is classed as in vitro ADME. The following applies: human liver microsomes, 1.0 μM compound, 0.5 mg/ml protein, 37° C., read-out: CLint (HClint). The procedure: Liver Microsome Metabolic Stability Assay (NADPH): • 1) Test compounds were incubated at 37° C. with liver microsomes (pooled from multiple donors) at 1.0 μM in the presence of NADPH (˜1.0 mM) at 0.5 mg/ml microsomal protein. • 2) Positive controls include testosterone (3A4 substrate), propafenone (2D6) and diclofenac (2C9). They are also incubated with microsomes in the presence of NADPH. • 3) Time samples (0, 5, 15, 30, 45 and 60 minutes) are removed and immediately mixed with cold acetonitrile containing internal standard (IS). Test compound incubated with microsomes without NADPH for 60 min are also included. • 4) Duplicate point for each test condition (n=2). • 5) Samples are analyzed by LC/MS/MS; disappearance of test compound is assessed base on peak area ratios of analyte/IS (no standard curve). • 6) An excel data summary, calculated intrinsic clearance and T1/2 values are provided. • 7) The following equation is used to calculate the microsome clearance: […]
The mg microsomal protein/g liver weight is 45 for 5 species. The liver weight values will use 40 g/kg, 30 g/kg, 32 g/kg, 20 g/kg and 88 g/kg for rat, monkey, dog, human and mouse, respectively. The liver clearance will be calculated using CLint(mic) with the following equation: […]
In general terms: Microsomes from liver hold many membrane-bound enzymes, among them those of drug oxidation.

Series [3] in a line: Log D assay (1-octanol/buffer shake flask, LC/MS/MS). It counts as physicochemical. Conditions: 1-octanol/phosphate buffer; 1-octanol / 0.1 M phosphate buffer pH 7.4. From the text:
Log D: The Log D assay is a miniaturized 1-octanol/buffer shake flask method followed by LC/MS/MS analysis. It is typically measured by determining the partition of a compound between an organic solvent (1-octanol) and an aqueous buffer (0.1 M phosphate buffer, pH 7.4; Varied buffer pH can be set). Since log D is pH dependent, the pH of the aqueous phase is always specified and is commonly measured at pH 7.4, the physiological pH of body fluids. […] Correct the peak areas by dilution factors and embedded internal standard, and the ratio of the corrected peak areas will be used to calculate the results (Log D value). • 8) Use the QC samples to monitor the process Log D determination. • 9) Data Analysis: The Log D value for each compound is calculated by the following equation: […]

SMILES strings stand for the structures.

For `Cn1nc(C(F)(F)F)cc1C(=O)NC(C)(C)c1cc(-c2ccnc(C(F)(F)F)c2)nn1C` [Compound 1063, 1-methyl-N-(2-(1-methyl-3-(2-(trifluoromethyl)pyridin-4-yl)-1H-pyrazol-5-yl)propan-2-yl)-3-(trifluoromethyl)-1H-pyrazole-5-carboxamide], the solubility (kinetic) (commonly the concentration staying in solution when a stock, usually in DMSO, is diluted into the medium) at 24 h in series [1] was < 1.6 µM. In addition, the microsomal CLint at 1 μM in series [2] is < 9.6 µL/min/mg. In series [3], the pH-dependent lipophilicity (logD) (in general, the decadic logarithm of the distribution of all forms, ionised or not, between an organic phase and buffer at a given pH) at 1 h amounted to 3.

As for `Cn1nc(C(F)(F)F)cc1C(=O)NC1(c2cc(-c3ccnc(C(F)(F)F)c3)nn2C)CCC1` [Compound 1064, 1-methyl-N-(1-(1-methyl-3-(2-(trifluoromethyl)pyridin-4-yl)-1H-pyrazol-5-yl)cyclobutyl)-3-(trifluoromethyl)-1H-pyrazole-5-carboxamide], in series [1], the kinetic solubility at 24 h was < 1.6 µM. Also, the microsomal CLint at 1 μM in series [2] was < 9.6 µL/min/mg. In series [3], this compound gave a logD at 1 h of 4.4.
